Reference: US20160193299A1, “MODIFIED NUCLEOSIDE, NUCLEOTIDE, AND NUCLEIC ACID COMPOSITIONS” (Moderna Therapeutics, Inc., priority 2011, published 2016)

Key:
HeLa cells = assay: Chemical modifications on luciferase mRNA, HeLa transfection (RLU); format: cell-based; settings: 83 ng luciferase mRNA, 18 to 22 hours
Method: The day before transfection, 20,000 HeLa cells (ATCC no. CCL-2; Manassas, Va.) were harvested by treatment with Trypsin-EDTA solution (Life Technologies, Grand Island, N.Y.) and seeded in a total volume of 100 ul EMEM medium (supplemented with 10% FCS and 1× Glutamax) per well in a 96-well cell culture plate (Corning, Manassas, Va.). The cells were grown at 37° C. in 5% CO2 atmosphere overnight. […] Lipofectamine 2000 (LifeTechnologies, Grand Island, N.Y.) was used as transfection reagent and 0.2 ul were diluted in 10 ul final volume of OPTI-MEM. After 5 minutes of incubation at room temperature, both solutions were combined and incubated an additional 15 minute at room temperature. Then the 20 ul combined solution was added to the 100 ul cell culture medium containing the HeLa cells and incubated at room temperature.
After 18 to 22 hours of incubation cells expressing luciferase were lysed with 100 ul of Passive Lysis Buffer (Promega, Madison, Wis.) according to manufacturer instructions. Aliquots of the lysates were transferred to white opaque polystyrene 96-well plates (Corning, Manassas, Va.) and combined with 100 ul complete luciferase assay solution (Promega, Madison, Wis.). […] The plate reader was a BioTek Synergy H1 (BioTek, Winooski, Vt.). The background signal of the plates without reagent was about 200 relative light units per well.

[1] = test system: liver, spleen, lung and kidney; assay: Lipoplex study, organ flux at 6 hours (Table 130); format: in vivo, mouse; settings: lipoplexed luciferase mRNA, 0.10 mg/kg
Method: (§1) The formulation was administered intravenously (I.V.), intramuscularly (I.M.) or subcutaneously (S.C.) to Balb-C mice at a dose of 0.10 mg/kg.
(§2) Twenty minutes prior to imaging, mice were injected intraperitoneally with a D-luciferin solution at 150 mg/kg. Animals were then anesthetized and images were acquired with an IVIS Lumina II imaging system (Perkin Elmer). Bioluminescence was measured as total flux (photons/second) of the entire mouse. The mice were imaged at 8 hours, 24 hours and 48 hours after dosing and the average total flux (photons/second) was measured for each route of administration and chemical modification. The background signal was about 3.91E+05 p/s. Organs were imaged at 6 hours and the average total flux (photons/second) was measured for the liver, spleen, lung and kidney. A control for each organ was also analyzed.

Balb-C mice [2] = assay: Lipoplex study, whole-body flux (Table 129); format: in vivo, mouse; settings: lipoplexed luciferase mRNA, 0.10 mg/kg
Method: as §1, §2

Balb-C mice [3] = assay: Intramuscular and subcutaneous administration of modified luciferase mRNA in PBS (whole-body flux); format: in vivo, mouse
Method: The mice were imaged at 2 hours, 8 hours, 24 hours, 48 hours, 72 hours, 96 hours, 120 hours and 144 hours for intramuscular delivery and 2 hours, 8 hours, 24 hours, 48 hours, 72 hours, 96 hours and 120 hours for subcutaneous delivery. Twenty minutes prior to imaging, mice were injected intraperitoneally with a D-luciferin solution at 150 mg/kg. Animals were then anesthetized and images were acquired with an IVIS Lumina II imaging system (Perkin Elmer). Bioluminescence was measured as total flux (photons/second) of the entire mouse. The average total flux (photons/second) for intramuscular administration is shown in Table 113 and the average total flux (photons/second) for subcutaneous administration is shown in Table 114. The background signal was 3.79E+05 (p/s). The peak expression for intramuscular administration was seen between 24 and 48 hours for all chemistry and expression was still detected at 144 hours.

human EPO [4] = assay: Example 48 split dose study IM, serum human EPO, product per unit drug and dose splitting factor; format: in vivo, mice; settings: for Avg. pmol/mL human EPO: serum 13 h
Method: The dosing vehicle (F. buffer) consisted of 150 mM NaCl, 2 mM CaCl2, 2 mM Nat phosphate (1.4 mM monobasic sodium phosphate; 0.6 mM dibasic sodium phosphate), and 0.5 mM EDTA, pH 6.5. The pH was adjusted using sodium hydroxide and the final solution was filter sterilized.
Animals (n=5) were injected IM (intramuscular) for the single unit dose of 100 ug. For multi-dosing, two schedules were used, 3 doses of 100 ug and 6 doses of 100 ug. For the split dosing scheme, two schedules were used, 3 doses at 33.3 ug and 6 doses of 16.5 ug mmRNA. Control dosing involved use of buffer only at 6 doses. […] Blood and muscle tissue were evaluated 13 hrs post injection.
Human EPO protein was measured in mouse serum 13 h post I.M. single, multi- or split dosing of the EPO mmRNA in buffer. Seven groups of mice (n=5 mice per group) were treated and evaluated.
The splitting factor is defined as the product per unit drug divided by the single dose product per unit drug (PUD). For example for treatment group 2 the value 0.28 or product (EPO) per unit drug (mmRNA) is divided by the single dose product per unit drug of 0.14. The result is 2. Likewise, for treatment group 4, the value 1.1 or product (EPO) per unit drug (mmRNA) is divided by the single dose product per unit drug of 0.14. The result is 7.9. Consequently, the dose splitting factor (DSF) may be used as an indicator of the efficacy of a split dose regimen. For any single administration of a total daily dose, the DSF should be equal to 1. Therefore any DSF greater than this value in a split dose regimen is an indication of increased efficacy.

human EPO [5] = assay: Example 43 multi-dose/multi-administration IM, serum human EPO; format: in vivo, Sprague-Dawley rats; settings: rat serum 13 h post I.M.
Method: The dosing vehicle (F. buffer) was used as a control.
Animals (n=5), Sprague-Dawley rats, were injected IM (intramuscular) for the single unit dose of 100 ug (delivered to one thigh). For multi-dosing 6 doses of 100 ug (delivered to two thighs) were used for both EPO and G-CSF mmRNA. Control dosing involved use of buffer at a single dose. Human EPO blood levels were evaluated 13 hrs post injection.
Human EPO protein was measured in rat serum 13 h post I.M. Five groups of rats were treated and evaluated.

5mC/pU: Luciferase mRNA SEQ ID NO: 16, polyA about 140, fully modified with 5-methylcytosine and pseudouridine
RLU (HeLa cells): 1601234 RLU | Inj. Site Flux ([1]; I.M.): 1.15E+06 p/s | Kidney Flux ([1]; I.M.): 1.44E+04 p/s | Liver Flux ([1]; I.M.): 2.46E+04 p/s | Lung Flux ([1]; I.M.): 1.50E+04 p/s | Spleen Flux ([1]; I.M.): 1.38E+04 p/s | Kidney Flux ([1]; I.V.): 1.77E+04 p/s | Liver Flux ([1]; I.V.): 5.26E+05 p/s | Lung Flux ([1]; I.V.): 4.28E+06 p/s | Spleen Flux ([1]; I.V.): 2.04E+07 p/s | Inj. Site Flux ([1]; S.C.): 4.46E+04 p/s | Kidney Flux ([1]; S.C.): 1.69E+04 p/s | Liver Flux ([1]; S.C.): 1.55E+04 p/s | Lung Flux ([1]; S.C.): 1.45E+04 p/s | Spleen Flux ([1]; S.C.): 1.67E+04 p/s | Flux (Balb-C mice [2]; I.M., 8 hrs): 1.90E+06 p/s | Flux (Balb-C mice [2]; I.M., 24 hrs): 9.33E+05 p/s | Flux (Balb-C mice [2]; I.M., 48 hrs): 8.51E+05 p/s | Flux (Balb-C mice [2]; I.V., 8 hrs, background about 3.91E+05 p/s): 5.76E+06 p/s | Flux (Balb-C mice [2]; I.V., 24 hrs): 1.02E+06 p/s | Flux (Balb-C mice [2]; I.V., 48 hrs): 4.53E+05 p/s | Flux (Balb-C mice [2]; S.C., 8 hrs): 2.85E+06 p/s | Flux (Balb-C mice [2]; S.C., 24 hrs): 6.66E+05 p/s | Flux (Balb-C mice [2]; S.C., 48 hrs): 3.24E+05 p/s | Flux (Balb-C mice [3]; Balb-C mice, intramuscular 2.5 mg/kg in PBS, 2 hours): 1.98E+07 p/s | Flux (Balb-C mice [3]; Balb-C mice, subcutaneous 2.5 mg/kg in PBS, 2 hours): 5.26E+06 p/s | Flux (Balb-C mice [3]; intramuscular 2.5 mg/kg, 8 hours): 1.42E+07 p/s | Flux (Balb-C mice [3]; intramuscular 2.5 mg/kg, 24 hours): 2.92E+07 p/s | Flux (Balb-C mice [3]; intramuscular 2.5 mg/kg, 48 hours): 2.64E+07 p/s | Flux (Balb-C mice [3]; intramuscular 2.5 mg/kg, 72 hours): 2.18E+07 p/s | Flux (Balb-C mice [3]; intramuscular 2.5 mg/kg, 96 hours): 2.75E+07 p/s | Flux (Balb-C mice [3]; intramuscular 2.5 mg/kg, 120 hours): 2.19E+07 p/s | Flux (Balb-C mice [3]; intramuscular 2.5 mg/kg, 144 hours): 9.17E+06 p/s | Flux (Balb-C mice [3]; subcutaneous 2.5 mg/kg, 8 hours): 2.32E+06 p/s | Flux (Balb-C mice [3]; subcutaneous 2.5 mg/kg, 24 hours): 2.67E+06 p/s | Flux (Balb-C mice [3]; subcutaneous 2.5 mg/kg, 48 hours): 1.22E+06 p/s | Flux (Balb-C mice [3]; subcutaneous 2.5 mg/kg, 72 hours): 1.12E+06 p/s | Flux (Balb-C mice [3]; subcutaneous 2.5 mg/kg, 96 hours): 5.16E+05 p/s | Flux (Balb-C mice [3]; subcutaneous 2.5 mg/kg, 120 hours): 3.80E+05 p/s

Unmodified Luciferase: unmodified luciferase mRNA SEQ ID NO: 16, polyA about 140, Cap1
RLU (HeLa cells): 33980 RLU

B1: Human EPO mmRNA (nucleic acid, listed as Homo sapiens)
sense: GGGAAAUAAGAGAGAAAAGAAGAGUAAGAAGAAAUAUAAGAGCCACCAUGGGAGUGCACGAGUGUCCCGCGUGGUUGUGGUUGCUGCUGUCGCUCUUGAGCCUCCCACUGGGACUGCCUGUGCUGGGGGCACCACCCAGAUUGAUCUGCGACUCACGGGUACUUGAGAGGUACCUUCUUGAAGCCAAAGAAGCCGAAAACAUCACAACCGGAUGCGCCGAGCACUGCUCCCUCAAUGAGAACAUUACUGUACCGGAUACAAAGGUCAAUUUCUAUGCAUGGAAGAGAAUGGAAGUAGGACAGCAGGCCGUCGAAGUGUGGCAGGGGCUCGCGCUUUUGUCGGAGGCGGUGUUGCGGGGUCAGGCCCUCCUCGUCAACUCAUCACAGCCGUGGGAGCCCCUCCAACUUCAUGUCGAUAAAGCGGUGUCGGGGCUCCGCAGCUUGACGACGUUGCUUCGGGCUCUGGGCGCACAAAAGGAGGCUAUUUCGCCGCCUGACGCGGCCUCCGCGGCACCCCUCCGAACGAUCACCGCGGACACGUUUAGGAAGCUUUUUAGAGUGUACAGCAAUUUCCUCCGCGGAAAGCUGAAAUUGUAUACUGGUGAAGCGUGUAGGACAGGGGAUCGCUGAUAAGCUGCCUUCUGCGGGGCUUGCCUUCUGGCCAUGCCCUUCUUCUCUCCCUUGCACCUGUACCUCUUGGUCUUUGAAUAAAGCCUGAGUAGGAAG
modifications: 5' Cap1, polyA tail ~160 nt
Dose Splitting Factor (human EPO [4]; 1 × 100 ug, total 100 ug): 1 | Polypeptide per unit drug (human EPO [4]; 1 × 100 ug, total 100 ug): 0.14 pmol/µg | Avg. pmol/mL human EPO (human EPO [4]; 1 × 100 ug, total 100 ug): 14.3 pmol/mL | Dose Splitting Factor (human EPO [4]; 3 × 33.3 ug, total 100 ug): 7.9 | Polypeptide per unit drug (human EPO [4]; 3 × 33.3 ug, total 100 ug): 1.1 pmol/µg | Avg. pmol/mL human EPO (human EPO [4]; 3 × 33.3 ug, total 100 ug): 104.7 pmol/mL | Dose Splitting Factor (human EPO [4]; 3 × 100 ug, total 300 ug): 2 | Polypeptide per unit drug (human EPO [4]; 3 × 100 ug, total 300 ug): 0.28 pmol/µg | Avg. pmol/mL human EPO (human EPO [4]; 3 × 100 ug, total 300 ug): 82.5 pmol/mL | Dose Splitting Factor (human EPO [4]; 6 × 16.5 ug, total 100 ug): 9.3 | Polypeptide per unit drug (human EPO [4]; 6 × 16.5 ug, total 100 ug): 1.3 pmol/µg | Avg. pmol/mL human EPO (human EPO [4]; 6 × 16.5 ug, total 100 ug): 127.9 pmol/mL | Dose Splitting Factor (human EPO [4]; 6 × 100 ug, total 600 ug): 3.3 | Polypeptide per unit drug (human EPO [4]; 6 × 100 ug, total 600 ug): 0.46 pmol/µg | Avg. pmol/mL human EPO (human EPO [4]; 6 × 100 ug, total 600 ug): 273.0 pmol/mL | Avg. human EPO (human EPO [5]; 1 × 100 ug, total dose 100 ug): 143 pg/mL | Avg. human EPO (human EPO [5]; 6 × 100 ug, total dose 600 ug): 256 pg/mL
